Experimental findings from patent US11142514B2, “Imino compounds with a 2-chloropyrimidin-5-yl substituent as pest-control agents” (BASF SE, priority 2015, dated 2021) are described below.

One may read the mortality as the share of the test organisms that died.

Common to all, as to assay type: in vivo
Series [1] deals with Cotton aphid (Aphis gossypii). The series is described as follows: Cotton aphid (Aphis gossypii) foliar spray test B.3. Conditions: for Activity in %: comparative experiment, 300 ppm, assay according to B.3. How it is done: (§1) The active compounds were formulated by a Tecan liquid handler in 100% cyclohexanone as a 10,000 ppm solution supplied in tubes. The 10,000 ppm solution was serially diluted in 100% cyclohexanone to make interim solutions. These served as stock solutions for which final dilutions were made by the Tecan in 50% acetone:50% water (v/v) into 10 or 20 ml glass vials. A nonionic surfactant (Kinetic®) was included in the solution at a volume of 0.01% (v/v). The vials were then inserted into an automated electrostatic sprayer equipped with an atomizing nozzle for application to plants/insects.
Cotton plants at the cotyledon stage were infested with aphids prior to treatment by placing a heavily infested leaf from the main aphid colony on top of each cotyledon. Aphids were allowed to transfer overnight to accomplish an infestation of 80-100 aphids per plant and the host leaf was removed. The infested plants were then sprayed by an automated electrostatic plant sprayer equipped with an atomizing spray nozzle. The plants were dried in the sprayer fume hood, removed from the sprayer, and then maintained in a growth room under fluorescent lighting in a 24-hr photoperiod at 25° C. and 20-40% relative humidity. Aphid mortality on the treated plants, relative to mortality on untreated control plants, was determined after 5 days.
(§2) The compound of example I-1 was compared with the compound of example I.B-4 of WO 2015/040116 having an unsubstituted pyrimidin-5-yl ring instead of the present 2-chloropyrimidin-5-yl ring with respect to the insecticidal activity. The assays were carried out as described above for the respective pest (the cotton aphid assay according to B.3).

The subject of series [2] is Cowpea aphid (Aphis craccivora). The series is described as follows: Cowpea aphid (Aphis craccivora) spray test B.5. Conditions: for Activity in %: comparative experiment, 100 ppm. On the procedure: (§3) The active compound was dissolved at the desired concentration in a mixture of 1:1 (vol:vol) distilled water: acetone. Surfactant (Kinetic® HV) was added at a rate of 0.01% (vol/vol). The test solution was prepared at the day of use.
Potted cowpea plants were colonized with approximately 30-50 aphids of various stages by manually transferring a leaf tissue cut from infested plant 24 hours before application. Plants were sprayed with the test solutions using a DeVilbiss® hand atomizer at 20-30 psi (≈1.38 to 2.07 bar) after the pest population has been checked. Treated plants were maintained on light carts at about 25-26° C. Percent mortality was assessed after 72 hours.
as §2

In series [3] the test system is Green Peach Aphid (Myzus persicae). The series is described as follows: Green peach aphid (Myzus persicae) foliar spray test B.7. Conditions: for Activity in %: comparative experiment, 300 ppm. On the procedure:
as §1
Bell pepper plants at the first true-leaf stage were infested prior to treatment by placing heavily infested leaves from the main colony on top of the treatment plants. Aphids were allowed to transfer overnight to accomplish an infestation of 30-50 aphids per plant and the host leaves were removed. The infested plants were then sprayed by an automated electrostatic plant sprayer equipped with an atomizing spray nozzle. The plants were dried in the sprayer fume hood, removed, and then maintained in a growth room under fluorescent lighting in a 24 h photoperiod at about 25° C. and about 20-40% relative humidity. Aphid mortality on the treated plants, relative to mortality on untreated control plants, was determined after 5 days.
as §2

The subject of series [4] is Green Soldier Stink Bug (Nezara viridula). The series is described as follows: Green soldier stink bug (Nezara viridula) test B.8. Conditions: in Glycine max, 120 h, read-out: mortality in comparison with untreated controls. How it is done:
as §3
Soybean pods were placed in 90×50 mm glass Petri dishes lined with moist filter paper and inoculated with ten late 3rd instar N. viridula. Using a hand atomizer, an approximately 2 ml solution was sprayed into each Petri dish. Treated cups were kept at about 25-26° C. and relative humidity of about 65-70%. Percent mortality was recorded after 5 days.

Series [5] concerns Orchid thrips (Dichromothrips corbetti). The series is described as follows: Orchid thrips (Dichromothrips corbetti) floral immersion test B.10. The following applies: for Activity in %: comparative experiment, 10 ppm. How it is done:
Dichromothrips corbetti adults used for bioassay were obtained from a colony maintained continuously under laboratory conditions. For testing purposes, the test compound was diluted in a 1:1 mixture of acetone:water (vol:vol), plus Kinetic® HV at a rate of 0.01% v/v.
Thrips potency of each compound was evaluated by using a floral immersion technique. All petals of individual, intact orchid flowers were dipped into treatment solution and allowed to dry in Petri dishes. Treated petals were placed into individual re-sealable plastic along with about 20 adult thrips. All test arenas were held under continuous light and a temperature of about 28° C. for duration of the assay. After 3 days, the numbers of live thrips were counted on each petal. The percent mortality was recorded 72 hours after treatment.
as §2

Series [6] relates to Rice green leafhopper (Nephotettix virescens). The series is described as follows: Rice green leafhopper (Nephotettix virescens) spray test B.12. The following applies: for Activity in %: comparative experiment, 10 ppm. On the procedure: Four to five-week old rice seedlings with cut upper leaf portion were cleaned and washed 24 hours before spraying. The active compounds were formulated in 1:1 acetone:water (vol:vol), and 0.01% vol/vol surfactant (Kinetic® HV) was added. Potted rice seedlings were sprayed with 5-6 ml test solution, air dried, covered with Mylar cages and inoculated with 10 adults. Treated rice plants were kept at about 28-29° C. and relative humidity of about 50-60%. Percent mortality was recorded after 72 hours.
as §2

Series [7] deals with Rice brown plant hopper (Nilaparvata lugens). The series is described as follows: Rice brown plant hopper (Nilaparvata lugens) spray test B.13. The following applies: 72 h, read-out: mortality in comparison with untreated controls. How it is done:
Four to five-week old rice seedlings were cleaned and washed 24 hours before spraying. The active compounds were formulated in 1:1 acetone:water (vol:vol) and 0.01% vol/vol surfactant (Kinetic® HV) was added. Potted rice seedlings were sprayed with 5-6 ml test solution, air dried, covered with Mylar cages and inoculated with 10 adults. Treated rice plants were kept at about 28-29° C. and relative humidity of about 50-60%. Percent mortality was recorded after 72 hours.

Series [8] has as its system Southern armyworm (Spodoptera eridania). In words: Southern armyworm (Spodoptera eridania) foliar spray test B.15. The following applies: for Activity in %: comparative experiment, 300 ppm. How it is done:
as §1
Lima bean plants (variety Sieva) were grown 2 plants to a pot and selected for treatment at the 1st true leaf stage. Test solutions were sprayed onto the foliage by an automated electrostatic plant sprayer equipped with an atomizing spray nozzle. The plants were dried in the sprayer fume hood and then removed from the sprayer. Each pot was placed into perforated plastic bags with a zip closure. About 10 to 11 armyworm larvae were placed into the bag and the bags zipped closed. Test plants were maintained in a growth room at about 25° C. and about 20-40% relative humidity for 4 days, avoiding direct exposure to fluorescent light (24 hour photoperiod) to prevent trapping of heat inside the bags. Mortality and reduced feeding were assessed 4 days after treatment, compared to untreated control plants.
as §2

For series [9], the system named is Vetch aphid (Megoura viciae). The series is described as follows: Vetch aphid (Megoura viciae) leaf disk test B.19. Conditions: foliar, 120 h, read-out: mortality in comparison with untreated controls. On the procedure:
For evaluating control of vetch aphid (Megoura viciae) through contact or systemic means the test unit consisted of 24-well-microtiter plates containing broad bean leaf disks.
The compounds were formulated using a solution containing 75% v/v water and 25% v/v DMSO. Different concentrations of formulated compounds were sprayed onto the leaf disks at 2.5 μl, using a custom built micro atomizer, at two replications.
After application, the leaf disks were air-dried and 5-8 adult aphids placed on the leaf disks inside the microtiter plate wells. The aphids were then allowed to suck on the treated leaf disks and incubated at about 23±1° C. and about 50±5% relative humidity for 5 days. Aphid mortality and fecundity was then visually assessed.

The subject of series [10] is Diamond back moth (Plutella xylostella). The series is described as follows: Diamond back moth (Plutella xylostella) leaf dip test B.6. The following applies: 300 ppm; cabbage leaf dip; 72 hours after treatment. How it is done: as §3
Leaves of cabbage were dipped in test solution and air-dried. Treated leaves were placed in petri dishes lined with moist filter paper and inoculated with ten 3rd instar larvae. Mortality was recorded 72 hours after treatment. Feeding damages were also recorded using a scale of 0-100%.

`N#CC1(C(=O)N=c2ccccn2Cc2cnc(Cl)nc2)CC1` [I-1, N-[1-[(2-chloropyrimidin-5-yl)methyl]-2-pyridylidene]-1-cyano-cyclopropanecarboxamide]: the mortality at 300 ppm in [1] (Aphis gossypii, foliar, 120 h, read-out: mortality in comparison with untreated controls) was more than 75%; in [2] (Aphis craccivora, 72 h, read-out: mortality in comparison with untreated controls) it was more than 75%; in [4] it was more than 75%; in series [5] (Thrips, 72 h, read-out: mortality in comparison with untreated controls), more than 75%; in [6] (Nephotettix virescens, 72 h, read-out: mortality in comparison with untreated controls), more than 75%; in series [7], more than 75%. Besides, the mortality at 300 ppm in series [8] (Spodoptera eridania, in Phaseolus lunatus, foliar, 96 h, read-out: mortality in comparison with untreated controls) is more than 75%. In addition, the Activity in % in [1] was 90%; in series [2] it was 50%; in series [3], 100%; in [5] it was 100%; in series [6], 90%; in [8], 100%. The mortality at 2500 ppm in series [3] (Myzus persicae, foliar, 120 h, read-out: mortality in comparison with untreated controls) is more than 75%; in [9], more than 75%.

On to `CON=CC(=O)N=c1ccccn1Cc1cnc(Cl)nc1` [I-2], for which the “mortality in comparison with untreated controls” value in series [10] is listed as “over 75%”.

For the molecule `N#CC1(C(=O)N=c2ccccn2Cc2cncnc2)CC1` [I.B-4, reference compound], the Activity in % came to 0% in series [1]; 0% in series [2]; 50% in series [3]; 0% in [5]; 50% in [6]; 0% in [8].
